Paper PMC8286840, “Identifying SARS-CoV-2 antiviral compounds by screening for small molecule inhibitors of Nsp3 papain-like protease” (Biochemical Journal, 2021)
Structures can show the parent of a compound that is named as a salt. Where two headings read alike, the source gives them in different places.

Columns and labels:
[1] = target: T1, SARS-CoV-2 PLpro (nsp3 1564–1878) (Severe acute respiratory syndrome coronavirus 2, UniProt P0DTD1); test: biochemical; parameters: FRET-quenched peptide (Pro3) cleavage by PLpro, 10 min pre-incubation, slope over 20 min, normalised to no-compound control; details: high concentration screen, read-out: % of control remaining
[2] = target: T1, SARS-CoV-2 PLpro (nsp3 1564–1878); test: biochemical; parameters: FRET-quenched peptide (Pro3) cleavage by PLpro, 10 min pre-incubation, slope over 20 min, normalised to no-compound control; details: low concentration screen, read-out: % of control remaining

With `Cc1cc(Nc2cc(N3CCN(C)CC3)nc(/C=C/c3ccccc3)n2)n[nH]1` [ENMD-2076] the remaining activity at 3.75 µM ([1]; Well no.=5093) was 105% and the remaining activity at 1.25 µM ([2]; Well no.=5093) was 102%.
Compound `Cc1ccccc1C(=O)c1ccc(Nc2ccc(Br)cc2N)cc1Cl` [EO 1428 - (2-Methylphenyl)-[4-[(2-amino-4-bromophenyl)amino]-2-chlorophenyl]methanone] has a remaining activity at 3.75 µM ([1]; Well no.=2634) of 88.7% and a remaining activity at 1.25 µM ([2]; Well no.=2634) of 87.4%.
Work on `CC(C)[C@H](NC(=O)OCc1ccccc1)C(=O)N[C@@H](CC(=O)O)C(=O)CF` [EP1013] yielded a remaining activity at 3.75 µM ([1]; Well no.=6886) of 96.6% and a remaining activity at 1.25 µM ([2]; Well no.=6886) of 96.4%.
Compound `Cc1ccc2c(=O)c3ccccc3n(CCCN)c2c1C` [ER 27319 maleate - 10-(3-Aminopropyl)-3,4-dimethyl-9(10H)-acridinone maleate] has a remaining activity at 3.75 µM ([1]; Well no.=2536) of 99.3% and a remaining activity at 1.25 µM ([2]; Well no.=2536) of 98.5%.
Compound `Nc1[nH]nc2nnc(-c3c(-c4ccccc4)nn4ccccc34)cc12` [ERK Inhibitor II, FR180204] has a remaining activity at 3.75 µM ([1]; Well no.=2454) of 103% and a remaining activity at 1.25 µM ([2]; Well no.=2454) of 103%.
In the case of `O=c1[nH][nH]c2nnc(-c3c(-c4ccccc4)nn4ccccc34)cc12` [ERK Inhibitor II, Negative control], the remaining activity at 3.75 µM ([1]; Well no.=2456) is reported as 102% and the remaining activity at 1.25 µM ([2]; Well no.=2456) is reported as 98.3%.
`N/C(=N\N=C\c1ccc(-c2cccc([N+](=O)[O-])c2)o1)N[N+](=O)[O-]` [ERK Inhibitor III] was tested, and the remaining activity at 3.75 µM ([1]; Well no.=2422) was 104% and the remaining activity at 1.25 µM ([2]; Well no.=2422) was 101%.
In the case of `CCN(N=O)c1ccc(O)c(O)c1` [ET-3,4-dephostatin], the remaining activity at 3.75 µM ([1]; Well no.=598) is reported as 102% and the remaining activity at 1.25 µM ([2]; Well no.=598) is reported as 100%.
`CCCCCCCCCCCCCCCCCCOCC(COP(=O)([O-])OCC[N+](C)(C)C)OC` (centres unmarked) [ET-18-OCH3] was tested, and the remaining activity at 3.75 µM ([1]; Well no.=502) was 102% and the remaining activity at 1.25 µM ([2]; Well no.=502) was 104%.
`CC(C)(CCCCCC(O)CCCCCC(C)(C)C(=O)O)C(=O)O` [ETC-1002] showed a remaining activity at 3.75 µM ([1]; Well no.=8628) of 98.8% and a remaining activity at 1.25 µM ([2]; Well no.=8628) of 101%.
For `CC(C)(C#N)c1ccc(N2C(=O)OCc3cnc4ccc(-c5cnc6ccccc6c5)cc4c32)cc1` [ETP-46464], the remaining activity at 3.75 µM ([1]; Well no.=5557) was 97.9% and the remaining activity at 1.25 µM ([2]; Well no.=5557) was 101%.
`NC(=O)C1CCCc2c1[nH]c1ccc(Cl)cc21` (centres unmarked) [EX 527] was tested, and the remaining activity at 3.75 µM ([1]; Well no.=5287) was 97.8% and the remaining activity at 1.25 µM ([2]; Well no.=5287) was 99%.
`CC[C@@H](C)[C@@H](O)[C@H](C)C(=O)[C@H](C)/C=C(\C)C[C@H](C)[C@@H]1OC(=O)[C@H]1CC` [Ebelactone B] was tested, and the remaining activity at 3.75 µM ([1]; Well no.=3269) was 104% and the remaining activity at 1.25 µM ([2]; Well no.=3269) was 103%.
In the case of `NC(N)=Nc1nc(CSCCN/C=N/S(=O)(=O)c2ccc(Br)cc2)cs1` [Ebrotidine], the remaining activity at 3.75 µM ([1]; Well no.=7003) is reported as 103% and the remaining activity at 1.25 µM ([2]; Well no.=7003) is reported as 106%.
For `C[C@H]([C@H](O)CCC(C)(C)O)[C@H]1CC[C@@]2(O)C3=CC(=O)[C@@H]4C[C@@H](O)[C@@H](O)C[C@]4(C)[C@H]3CC[C@]12C` [Ecdysone], the remaining activity at 3.75 µM ([1]; Well no.=3643) was 102% and the remaining activity at 1.25 µM ([2]; Well no.=3643) was 104%.
`COc1cc2c(cc1O)CCN[C@]21CS[C@@H]2c3c(OC(C)=O)c(C)c4c(c3[C@H](COC1=O)N1[C@@H]2[C@H]2c3c(cc(C)c(OC)c3O)C[C@@H]([C@@H]1C#N)N2C)OCO4` [Ecteinascidin 770] was tested, and the remaining activity at 3.75 µM ([1]; Well no.=7070) was 97.2% and the remaining activity at 1.25 µM ([2]; Well no.=7070) was 100%.
`CCCCCCCCCCCCCCCCCCOCC(COP(=O)([O-])OCC[N+](C)(C)C)OC` (centres unmarked) [Edelfosine] was tested, and the remaining activity at 3.75 µM ([1]; Well no.=5699) was 96.4% and the remaining activity at 1.25 µM ([2]; Well no.=5699) was 95.5%.
`CN1CCc2nc(C(=O)N[C@@H]3C[C@@H](C(=O)N(C)C)CC[C@@H]3NC(=O)C(=O)Nc3ccc(Cl)cn3)sc2C1` [Edoxaban] was tested, and the remaining activity at 3.75 µM ([1]; Well no.=8572) was 97.7% and the remaining activity at 1.25 µM ([2]; Well no.=8572) was 99.4%.
With `CC[N+](C)(C)c1cccc(O)c1` [Edrophonium chloride] the remaining activity at 3.75 µM ([1]; Well no.=555) was 100% and the remaining activity at 1.25 µM ([2]; Well no.=555) was 99.7%.
Work on `CCC1(C2=NCCN2)Cc2ccccc2O1` (centres unmarked) [Efaroxan hydrochloride] yielded a remaining activity at 3.75 µM ([1]; Well no.=603) of 96.2% and a remaining activity at 1.25 µM ([2]; Well no.=603) of 97.3%.
Work on `O=C1Nc2ccc(Cl)cc2[C@@](C#CC2CC2)(C(F)(F)F)O1` [Efavirenz] yielded a remaining activity at 3.75 µM ([1]; Well no.=2248) of 101% and a remaining activity at 1.25 µM ([2]; Well no.=2248) of 97.1%.
`NCCCC(N)(C(=O)O)C(F)F` (centres unmarked) [Eflornithine hydrochloride hydrate] gave a remaining activity at 3.75 µM ([1]; Well no.=8636) of 95.7% and a remaining activity at 1.25 µM ([2]; Well no.=8636) of 104%.
Compound `CCCCCCCCCCC/C=C\C/C=C\CCCC(=O)O` [Eicosa-5,8-dienoic acid (20:2 n-12)] has a remaining activity at 3.75 µM ([1]; Well no.=4309) of 106% and a remaining activity at 1.25 µM ([2]; Well no.=4309) of 102%.
`CCCCCCCCCCCCCCCCCCCC(=O)O` [Eicosanoic acid] gave a remaining activity at 3.75 µM ([1]; Well no.=4400) of 93.4% and a remaining activity at 1.25 µM ([2]; Well no.=4400) of 94.6%.
`CC/C=C\C/C=C\C/C=C\C/C=C\C/C=C\CCCC(=O)O` [Eicosapentaenoic acid] gave a remaining activity at 3.75 µM ([1]; Well no.=4251) of 101%, a remaining activity at 3.75 µM ([1]; Well no.=4448) of 96.1% and a remaining activity at 3.75 µM ([1]; Well no.=7315) of 103%. For the same compound, the remaining activity at 1.25 µM ([2]; Well no.=4251) was 103%, the remaining activity at 1.25 µM ([2]; Well no.=4448) was 92.3% and the remaining activity at 1.25 µM ([2]; Well no.=7315) was 108%.
In the case of `CCCCCCCC/C=C/CCCCCCCC(=O)OC[C@H]1O[C@@H](n2ccc(N)nc2=O)[C@@H](O)[C@@H]1O` [Elacytarabine], the remaining activity at 3.75 µM ([1]; Well no.=7716) is reported as 110% and the remaining activity at 1.25 µM ([2]; Well no.=7716) is reported as 105%.
Work on `CSc1ccc(C(=O)/C=C/c2cc(C)c(OC(C)(C)C(=O)O)c(C)c2)cc1` [Elafibranor] yielded a remaining activity at 3.75 µM ([1]; Well no.=8106) of 95.3% and a remaining activity at 1.25 µM ([2]; Well no.=8106) of 96.6%.
`COc1cccc(-c2c(C)n(Cc3c(F)cccc3C(F)(F)F)c(=O)n(C[C@H](NCCCC(=O)O)c3ccccc3)c2=O)c1F` [Elagolix] showed a remaining activity at 3.75 µM ([1]; Well no.=7420) of 94.7% and a remaining activity at 1.25 µM ([2]; Well no.=7420) of 97.8%.
In the case of `CCCCCCCC/C=C/CCCCCCCC(=O)O` [Elaidic acid], the remaining activity at 3.75 µM ([1]; Well no.=7259) is reported as 87.3% and the remaining activity at 1.25 µM ([2]; Well no.=7259) is reported as 96%.
With `CN(NC(=O)CC(=O)NN(C)C(=S)c1ccccc1)C(=S)c1ccccc1` [Elesclomol] the remaining activity at 3.75 µM ([1]; Well no.=5001) was 107%, the remaining activity at 3.75 µM ([1]; Well no.=6406) was 111% and the remaining activity at 1.25 µM ([2]; Well no.=5001) was 104%. For the same compound, the remaining activity at 1.25 µM ([2]; Well no.=6406) was 102%.
Work on `CCCCCCCC(=O)N[C@H](CN1CCCC1)[C@H](O)c1ccc2c(c1)OCCO2` [Eliglustat] yielded a remaining activity at 3.75 µM ([1]; Well no.=8530) of 99% and a remaining activity at 1.25 µM ([2]; Well no.=8530) of 100%.
Work on `O=c1oc2c(O)c(O)cc3c(=O)oc4c(O)c(O)cc1c4c23` [Ellagic acid] yielded a remaining activity at 3.75 µM ([1]; Well no.=3346) of 101% and a remaining activity at 1.25 µM ([2]; Well no.=3346) of 99.4%.
`Cc1c2ccncc2c(C)c2c1[nH]c1ccccc12` [Ellipticine] was tested, and the remaining activity at 3.75 µM ([1]; Well no.=651) was 91.7%, the remaining activity at 3.75 µM ([1]; Well no.=3271) was 98% and the remaining activity at 1.25 µM ([2]; Well no.=651) was 95.5%. It also gave a remaining activity at 1.25 µM ([2]; Well no.=3271) of 102%.
